Measurements reported in PubChem BioAssay AID1996.
Converted amounts (≈) assume the structure as drawn.

Conditions: buffer; pH 7.4; 200.0 µM
In the case of `O=C(COC(=O)Cc1ccsc1)Nc1ccccc1Cl`, the solubility kinetic is reported as > 46.5 µg/mL.
For `Cc1ccc2c(c1)C1(OCCCO1)C(=O)N2`, the solubility kinetic was > 32.9 µg/mL.
In the case of `N#Cc1c(Nc2ccc(Cl)cc2)s[nH]c1=O`, the solubility kinetic is reported as > 37.8 µg/mL.
In the case of `O=C(CCCC(=O)c1ccccc1)NCCc1ccccc1`, the solubility kinetic is reported as > 44.3 µg/mL.
With `CC(C)c1ccc(N2C(=O)CC(Sc3ncccn3)C2=O)cc1` (stereo unspecified) the solubility kinetic was 4 µg/mL (≈ 12.2 µM).
In the case of `COC(=O)c1cc(OC)c(OC)cc1N1C(=O)CCCC1=O`, the solubility kinetic is reported as > 46.1 µg/mL.
With `O=c1[nH]cccc1-c1nc2ccccc2[nH]1` the solubility kinetic was > 31.7 µg/mL.
For `Cc1cccc(Nc2nc(-c3ccc(F)c(C)c3)cs2)n1`, the solubility kinetic was < 0.2 µg/mL.
With `COc1cccc(NC(=O)CN2CCCCCC2)c1.Cl` the solubility kinetic was 44.1 µg/mL.
`Cc1ccc(/C=C2\C(=O)NC(=O)N2C)o1` showed a solubility kinetic of 21.4 µg/mL (≈ 104 µM).
Work on `CC(=O)NC(=S)Nc1ccc([N+](=O)[O-])cc1C` yielded a solubility kinetic of 3.5 µg/mL (≈ 13.8 µM).
In the case of `COc1ccccc1N1C(=O)CC(=O)NC1=O`, the solubility kinetic is reported as > 35.1 µg/mL.
For `CN(Cc1ccccc1)C(=O)COC(=O)c1ccc(Br)o1`, the solubility kinetic was > 52.8 µg/mL.
For `CC(C)c1ccccc1OCCCCCN1CCOCC1`, the solubility kinetic was 25.8 µg/mL (≈ 88.5 µM).
For `CCN(C(=O)CSc1cccc[n+]1[O-])C1CCCCC1`, the solubility kinetic was > 44.2 µg/mL.
Work on `CCOc1ncccc1C(=O)Nc1nc(SC)ns1` yielded a solubility kinetic of 7.8 µg/mL (≈ 26.3 µM).
With `Cc1ccc(C(=O)NCC(=O)NCC(c2cccs2)N(C)C)cc1C` (stereo unspecified) the solubility kinetic was > 53.9 µg/mL.
Work on `O=C(c1ccc(Br)cc1)N1CCN(c2ncccn2)CC1` yielded a solubility kinetic of 44.6 µg/mL (≈ 128 µM).
Compound `COc1ccc(Cl)cc1C(=O)NCc1ccc2c(c1)OCO2` has a solubility kinetic of 34.3 µg/mL (≈ 107 µM).
For `O=C1C=C(NCc2ccccc2)c2ccccc2C1=O`, the solubility kinetic was 4.6 µg/mL (≈ 17.5 µM).
For `CCC(CC)C(=O)c1c[nH]c(C(=O)NCc2cccs2)c1`, the solubility kinetic was 4.4 µg/mL (≈ 14.5 µM).
`CSCC(=O)Nc1nc(-c2ccc3c(c2)OCCO3)cs1` showed a solubility kinetic of 5.2 µg/mL (≈ 16.1 µM).
With `CCC(=O)N1CCN=C1SCc1cccc(F)c1` the solubility kinetic was > 39.9 µg/mL.
For `O=C1N[C@@H](Cc2ccccc2)C(=O)N2CCC[C@@H]12`, the solubility kinetic was > 36.6 µg/mL.
`Cc1nc([N+](=O)[O-])c(C(=O)OCc2ccccc2)n1C` showed a solubility kinetic of 37.6 µg/mL (≈ 137 µM).
In the case of `c1ccc(-c2nc3nc4ccccc4nc3n2CC2CCCO2)cc1` (stereo unspecified), the solubility kinetic is reported as > 49.6 µg/mL.
With `c1ccc2c3c([nH]c2c1)C1(CCNCC1)NCC3` the solubility kinetic was 34.7 µg/mL (≈ 144 µM).
In the case of `CCOc1ccc(/C=N/NC(=O)Cn2ccnc2C)cc1`, the solubility kinetic is reported as > 42.9 µg/mL.
For `COc1cccc(/C=C/c2ccccn2)c1O`, the solubility kinetic was 34 µg/mL (≈ 150 µM).
With `CC1CN=C(Nc2ccc(F)c(Cl)c2)S1` (stereo unspecified) the solubility kinetic was 17.3 µg/mL (≈ 70.7 µM).
For `COc1cc(NC(c2ccccc2)c2ccccc2)cc(OC)c1OC`, the solubility kinetic was > 52.4 µg/mL.
Work on `COc1ccc(/C=C/C(=O)N2CCCc3ccccc32)c(OC)c1` yielded a solubility kinetic of 6.7 µg/mL (≈ 20.7 µM).
`C=C(C)CSc1nc2sc3c(c2c(=O)n1-c1ccc(C)cc1)CCN(C)C3` gave a solubility kinetic of 25.6 µg/mL (≈ 64.4 µM).
For `COc1ccc(CCNCc2sccc2C)cc1.Cl`, the solubility kinetic was > 44.7 µg/mL.
In the case of `CCOC(=O)CN(C(=O)c1ccccc1[N+](=O)[O-])C(C)(C)C`, the solubility kinetic is reported as 43.7 µg/mL (≈ 142 µM).
With `O=C(CN1C(=O)COc2ccccc21)N1CCOCC1` the solubility kinetic was > 41.4 µg/mL.
With `CC(=O)c1ccc(NC(=O)c2cc(-c3cccs3)on2)cc1` the solubility kinetic was < 0.3 µg/mL.
With `Cc1cc(SC(C)C(=O)O)nc2ccccc12` (stereo unspecified) the solubility kinetic was > 37.1 µg/mL.
With `CCCCC(=O)NC1(C(F)(F)F)NC(=O)N(C)C1=O` (stereo unspecified) the solubility kinetic was > 42.2 µg/mL.
`CC1(C)CC(=O)C=C(NCc2ccc(C(=O)O)cc2)C1` showed a solubility kinetic of 37.6 µg/mL (≈ 138 µM).
In the case of `Cc1ccc(S(N)(=O)=O)cc1NC(=O)C(c1ccccc1)c1ccccc1`, the solubility kinetic is reported as 37 µg/mL (≈ 97.2 µM).
With `CCOC(=O)C1CCN(S(=O)(=O)c2ccccc2)CC1` the solubility kinetic was > 44.6 µg/mL.
For `O=S(=O)(Cc1cc(Cl)nc(-c2cccnc2)n1)c1ccccc1`, the solubility kinetic was 40.7 µg/mL (≈ 118 µM).
`Cc1ccc(C)c(OC(=O)c2cccnc2Cl)c1C` gave a solubility kinetic of 14.8 µg/mL (≈ 53.7 µM).
`c1csc(-c2cc(N3CCCCC3)c3ccccc3n2)c1` gave a solubility kinetic of 1.1 µg/mL (≈ 3.74 µM).
For `COc1ccc(N2CCN(C(=S)NCc3ccc(C)cc3)CC2)cc1`, the solubility kinetic was < 0.3 µg/mL.
With `COc1ccc(S(=O)(=O)Nc2cc(C)on2)cc1` the solubility kinetic was 36.1 µg/mL (≈ 135 µM).
With `CC(=O)Nc1cccc(-c2csc(N)n2)c1` the solubility kinetic was > 35 µg/mL.
For `O=C(COc1cccnc1[N+](=O)[O-])c1c[nH]c2ccccc12`, the solubility kinetic was 4.3 µg/mL (≈ 14.5 µM).
In the case of `Cc1cccc(-c2nc(CNC(=O)c3ccco3)cs2)c1`, the solubility kinetic is reported as > 44.8 µg/mL.
For `O=C(NCC1CCCO1)c1cc(Br)c(Br)s1` (stereo unspecified), the solubility kinetic was > 55.4 µg/mL.
Work on `CCC(Oc1ccccc1OC)C(=O)Nc1ccc2c(c1)OCO2` (stereo unspecified) yielded a solubility kinetic of 26.3 µg/mL (≈ 79.9 µM).
In the case of `CC(C)c1nc2oc3c(=O)[nH]cnc3c2c2c1COC(C)(C)C2`, the solubility kinetic is reported as > 47 µg/mL.
`COc1cc([N+](=O)[O-])ccc1NC(=O)CN1CCCC1` showed a solubility kinetic of 37.2 µg/mL (≈ 133 µM).
For `CCCc1nnc(SCC(=O)NC2CCCCC2)n1CCOC`, the solubility kinetic was > 51.1 µg/mL.
In the case of `COc1cc(NC(=O)C(C)C)ccc1NC(=O)c1cc2ccccc2o1`, the solubility kinetic is reported as 0.7 µg/mL (≈ 1.99 µM).
For `O=C(Cn1cc([N+](=O)[O-])ccc1=O)N1CCc2ccccc21`, the solubility kinetic was 11.3 µg/mL (≈ 37.8 µM).
`CCN(CC)c1ccc(C=Nc2ccc(C)cc2C)c(O)c1` showed a solubility kinetic of 6.4 µg/mL (≈ 21.6 µM).
Work on `COc1cc(OC)c(NC(=S)NCc2ccc(F)cc2)cc1Cl` yielded a solubility kinetic of 1 µg/mL (≈ 2.82 µM).
With `COc1ccc(CNC(=O)CSc2cccc3cccnc23)cc1` the solubility kinetic was > 50.8 µg/mL.
For `O=C(O)CCC(NC(=S)Nc1ccccc1)C(=O)O` (stereo unspecified), the solubility kinetic was > 42.3 µg/mL.
